Data reported in US20190358201A1 (NantCell, Inc., priority 2018, published 2019).

What was measured:
[1] = Sensitivity and worst-case sensitivity analysis of PFS, aldoxorubicin vs doxorubicin (ITT population, independent assessment); type: in vivo, human; settings: for PFS Events: 42 doxorubicin / 84 aldoxorubicin patients; for HR (95% CI): stratified Cox regression
Experimental: Sensitivity Analysis: To assess the impact of censoring the 8 patients with no baseline imaging at the date of randomization, a sensitivity analysis was conducted where a PFS event was imputed at the date of randomization. This analysis is presented in Table 1 showing the sensitivity analysis of PFS (ITT Population^a).
(§1) PFS is defined as the time from randomization to the date of first objective documentation of disease progression or death (any cause), whichever comes first. CI=Confidence interval; ECOG=Eastern Cooperative Oncology Group; HR=Hazard ratio; PFS=Progression-free survival; PS=Performance status. ^a The ITT Population comprised all randomized patients. ^bP-value is from stratified log-rank test with ECOG PS (0 to 1, 2) and chemotherapy (no prior chemotherapy or prior adjuvant/neoadjuvant chemotherapy) as stratification factors. Hazard ratio and 95% CI are from a Cox regression model stratified by ECOG PS (0 1, 2) and chemotherapy (no prior chemotherapy or prior adjuvant/neoadjuvant chemotherapy).
This analysis is presented in Table 2 (Worst-Case Sensitivity Analysis of PFS (ITT population^a)).
as §1, with “status. ^aThe” for “status. ^a The”, “randomized patients.^b P-value” for “randomized patients. ^bP-value”, “is based on a” for “is from”

[2] = LVEF changes, Phase 2 study (INNO-206-P2-STS-01); type: in vivo, human; settings: for Subjects with LVEF < 50% at any post-baseline cycle / Subjects with a 10% fall in LVEF: Phase 2, doxorubicin median 4 cycles of 75 mg/m^2 (N 40), aldoxorubicin median 6 cycles of 350 mg/m^2 (N 83)
[3] = LVEF changes, Phase 3 study (P3-STS-01); type: in vivo, human
[4] = cited from earlier work
[5] = Cardiac function by 2D echocardiogram in patients treated for at least 6 cycles of aldoxorubicin (Phase 1/2 with ifosfamide/mesna and Phase 3 alone); type: in vivo, human
Experimental: Fifty-two patients enrolled in a Phase 1/2 study of aldoxorubicin and ifosfamide/mesna and a Phase 3 study using aldoxorubicin alone were treated for at least 6 cycles of aldoxorubicin at either 250 mg/m^2 or 350 mg/m^2 per dose i. v. every 3 weeks. Cardiac function using 2D echocardiogram was evaluated at regular intervals every two cycles of aldoxorubicin until end of treatment and every six months after completion of the treatment.
After treatment, the cumulative aldoxorubicin dose for these patients ranged from […] to 7,500 mg/m^2. […] Ventricular ejection fractions ranged from 45-74% baseline, and 50-77% at end of treatment, median being 60% both at the beginning and end of treatment. Therefore, it should be appreciated that aldoxorubicin lacks cardiotoxicity in these patients treated with aldoxorubicin, alone or in combination with ifosfamide/mesna.

[6] = Tolerability of higher total cumulative doses of aldoxorubicin in patients; type: in vivo, human
Experimental: Based on the results above, the inventors investigated whether even higher total cumulative doses of aldoxorubicin could be tolerated. To that end, patients were administered total cumulative dosages of up to 3,000 mg/m^2, up to 4,000 mg/m^2, up to 5,000 mg/m^2, up to 6,000 mg/m^2, up to 7,000 mg/m^2, up to 8,000 mg/m^2, up to 9,000 mg/m^2, up to 10,000 mg/m^2, up to 11,000 mg/m^2, up to 12,000 mg/m^2, up to 13,000 mg/m^2, up to 14,000 mg/m^2, and even higher. […] As described herein, cardiotoxicity may be monitored by monitoring the level of metabolite doxorubicinol in the cardiac cells. Suitable cumulative dosages of aldoxorubicin include those that will not adversely affect LVEF. As such, LVEF of patients receiving aldoxorubicin will typically be in the range of 55% to 70%. Thus, in some embodiments, the patients may have LVEF of 55%-60%, or 60%-65%, or 65%-70%. Less preferably, aldoxorubicin may be administered to the patient until reaching a slightly lower than normal LVEF, say between 50%-54%, or 45%-50%, or 40%-45%.

[7] = Alopecia induction in patients; type: in vivo, human; settings: aldoxorubicin administered instead of doxorubicin
soft tissue sarcoma = settings: vs investigator's choice, entire study population; p=0.12, 95% CI 0.64-1.06; cited from earlier work
[8] = Formation of doxorubicinol metabolite and pharmacokinetics after administration; settings: after administration to patients
[9] = sensitivity analysis of PFS, text to Table 1 / FIG. 2
[10] = sensitivity analysis, PFS event imputed at randomization for 8 patients without baseline imaging, ITT, independent assessment
[11] = sensitivity analysis, ITT, independent assessment
[12] = worst-case sensitivity analysis, PFS event imputed at date of censoring, ITT
[13] = worst-case sensitivity analysis, ITT, independent assessment
[14] = Phase 3, doxorubicin N 47, aldoxorubicin N 213

Compound: COc1cccc2c1C(=O)c1c(O)c3c(c(O)c1C2=O)C[C@@](O)(C(=O)CO)C[C@@H]3O[C@H]1C[C@H](N)[C@H](O)[C@H](C)O1 [Doxorubicin, reference compound]
- Median PFS [1, 9]: 83 days
- PFS Events [1, 10]: 29
- Median PFS [1, 11]: 82.0 days
- PFS Events [1, 12]: 42
- Median PFS [1, 13]: 48.0 days
- Subjects with LVEF < 50% at any post-baseline cycle [2]: 3 (8.6) n (%)
- Subjects with a 10% fall in LVEF [2]: 10 (29.4) n (%)
- Subjects with LVEF below 50% of any post-baseline visit [3, 14]: 9 (19.1) n (%)
- Allowable maximum cumulative lifetime dose ([4]; limit set in view of cardiotoxicity): 550 mg/m^2

Compound: COc1cccc2c1C(=O)c1c(O)c3c(c(O)c1C2=O)C[C@@](O)(/C(CO)=N/NC(=O)CCCCCN1C(=O)C=CC1=O)C[C@@H]3O[C@H]1C[C@H](N)[C@H](O)[C@H](C)O1 [Aldoxorubicin, (6-maleimidocaproyl) hydrazone derivative of doxorubicin]
- Median PFS [1, 9]: 170 days
- HR as stated in text ([1]; sensitivity analysis of PFS, aldoxorubicin vs doxorubicin, p=0.032, 95% CI [0.38, 0.95]): 0.60
- HR (95% CI) ([1]; sensitivity analysis of PFS, aldoxorubicin vs doxorubicin): 0.60 (0.38, 0.95)
- PFS Events [1, 10]: 52
- Median PFS [1, 11]: 132.0 days
- HR (95% CI) ([1]; worst-case sensitivity analysis of PFS, aldoxorubicin vs doxorubicin): 0.63 (0.43, 0.93)
- PFS Events [1, 12]: 84
- Median PFS [1, 13]: 88.5 days
- Decreases in LVEF (MUGA or echocardiogram) ([2]; Phase 2, aldoxorubicin treatment group): no clinically relevant decreases in LVEF were observed
- Subjects with LVEF < 50% at any post-baseline cycle [2]: 0 n (%)
- Subjects with a 10% fall in LVEF [2]: 9 (12.2) n (%)
- Cardiotoxicity ([3]; Phase 3, 350 mg/m^2/cycle, up to 40 cycles, as compared to doxorubicin): minimal or no cardiotoxicity
- Subjects with LVEF below 50% of any post-baseline visit [3, 14]: 15 (7) n (%)
- Subjects with ≥ 20% LVEF decrease from baseline at any post-baseline visit [3, 14]: 9 (4.2) n (%)
- Ventricular ejection fraction, median ([5]; both at the beginning and end of treatment): 60%
- Clinical congestive heart failure ([5]; eleven patients with prior doxorubicin, cumulative aldoxorubicin dose 1,000 to 7,500 mg/m^2): no patient developed any sign or symptom of clinical congestive heart failure
- Ventricular ejection fraction at end of treatment (range) ([5]; end of treatment, baseline range 45-74%): 50-77%
- Cardiac toxicity ([5]; up to doxorubicin equivalent doses of 7,500 mg/m^2, alone or with ifosfamide/mesna): did not find any evidence of cardiac toxicity
- Cardiotoxicity ([6]; cumulative dose equivalent to doxorubicin significantly more than 10× 550 mg/m^2): no or substantially reduced cardiotoxicity
- Cardiotoxicity ([6]; patients, doxorubicin equivalent doses even beyond 3000 mg/m^2): no cardiotoxicity was observed
- Tolerability, cardiotoxicity and/or LVEF ([6]; total cumulative doses of 14,000 mg/m^2): tolerated without any significant effect on cardiotoxicity and/or LVEF
- Alopecia induction [7]: minimal alopecia induction
- PFS hazard ratio (HR) (soft tissue sarcoma): 0.81
- Recommended doxorubicin equivalent dose ([4]; Clin Cancer Res 2007, 13(16)): 260 mg/m^2
- Formation of doxorubicinol [8]: no detectable doxorubicinol
- Formation of doxorubicinol ([8]; listed as doxorubicin after modification with N-c-maleimidocaproic acid hydrazide): did not lead to significant quantities of doxorubicinol
